# In patent US20080146555A1, “Uses of Kinase Inhibitors and Compositions Thereof” (GPC Biotech, Inc, priority 2004, published 2008):
# Legend:
# HCT-116 cells [1] = assay: Calcein AM viability assay, HCT-116; format: cell-based; details: Homo sapiens
# Method: (§1) The potency of the subject kinase inhibitors, as measured by loss of cellular viability, was determined with the Calcein AM assay (Molecular Probes). Calcein AM is a substrate of intracellular esterases, which is cleaved only in viable cells to generate a fluorescent product that can be quantified with a fluorescent plate reader. The fluorescent signal is proportional to the number of viable cells, and thus loss of signal in response to the exposure of cells to the subject kinase inhibitors correlates with a loss of viability. This assay not only distinguishes cell cycle arrest, in which cells may still by viable, from loss of viability, and is thus well suited for the evaluation of the subject kinase inhibitors. A compound that is a potent cytotoxic agent may cause significant loss of cell viability in such an assay.
# (§2) Cellular IC50's were determined in the human colorectal carcinoma cell line, HCT-116, and the normal human fibroblast, IMR90. Protein adjusted IC50's were also determined in HCT-116. Results of such viability assays are presented in Table 2 (HCT-116 (viability/protein adjusted) and IMR-90). IC50's (μM, non-protein adjusted) for the viability assay against HCT-116 cells are shown for further compounds of the invention in Table 4.
# (§3) HCT-116 or IMR90 cells were recovered from sub-confluent plates by trypsinization and 1,000 or 4,000 cells, respectively, were plated in 24-well dishes and incubated overnight at 37° C., 5% CO2. HCT-116 cells were cultured in RPMI-1640, 10% FCS, and IMR90 cells were cultured in Minimum Essential Medium-alpha, 10% FCS. After overnight incubation to allow adherence, the media was aspirated from each well and replaced with media containing a test compound at a concentration from 0 to 250 nM, spanning a total of 7 doses. The plates were returned to the incubator and cultured for an additional 72 hours (3 days). […] After 72-hours incubation with the test compound, the cells were washed twice with 1×PBS, taking special care to remove all residual buffer.
# (§4) A 5 μM Calcein AM solution was prepared by dissolving a 50 μg aliquot of Calcein (Molecular Probes catalog #C3100) in 50 μl DMSO. After the Calcein had completely dissolved (10 minutes at room temperature), it was diluted into 10 ml PBS. Calcein/PBS (0.5 ml) was added to each well. The plates were incubated for 75 minutes at 37° C. (protected from light) and the fluorescent signal was read on a fluorescent plate reader (excitation 485/20 and emission 530/25).
# [2] = system: adriamycin resistant cell line (ADR-res); assay: NCI panel, adriamycin resistant cell line, SRB assay; format: cell-based; details: Homo sapiens, 48 h
# Excerpt: (§5) The evaluation of compounds at the National Cancer Institute in their panel of 60 cell lines provides a wealth of information regarding efficacy in a wide range of tumor types and genetic backgrounds. Included within this panel are cell lines derived from leukemia, melanoma and cancers of the lung, colon, brain, ovary, breast, prostate and kidney. Use of this panel provides a measure of the efficacy of compounds in cells with alterations in many genes that are associated with neoplastic transformation including p53 and Her2/Neu as well as those involved in metabolism and those which confer multi-drug resistance. The data generated in these cell lines with the protocol described below can be used to evaluate the activity of compounds.
# (§6) Cells were grown in RPMI-1640 10% FCS and plated in 96 well micro-titer plates at densities ranging from 5,000 to 40,000 cells/well. The plates were incubated for 24 hours at 37° C., 5% CO2 for 24 hours. Media containing twice the desired final concentration of the compound (5 doses spanning 4 logs) was prepared and 100 μl was added to each well containing 100 μl media plus cells to yield the desired final concentration. The plates were then incubated for an additional 48 hours.
# (§7) The effect of the compound on cellular viability was determined with the Sulforhodamine B (SRB) assay, which measures total protein. Cells were fixed with cold TCA to a final concentration of 10% and incubated at 4° C. for 60 minutes. The supernatant was discarded and the plates were washed five times with water and air-dried. SRB solution at […] in 1% acetic acid was added to each well and the plates were incubated for 10 minutes at room temperature. The plates were washed five times with 1% acetic acid and air-dried. The bound stain was solubilized with 10 mM trizma base and the absorbance was read on a plate reader at […].
# [3] = system: normal human fibroblast, IMR90; assay: Calcein AM viability assay, IMR90; format: cell-based; details: IMR-90, Calcein AM, 72 h
# Method: as §1, §2, §3, §4
# [4] = system: NCI panel of 60 cell lines; assay: cells; details: Homo sapiens, 60 cell, 48 h, read-out: NCI panel MG-MID (Mean-Graph Mid-point, average IC50 over panel), 48 h, SRB; IC50 <10 nM counted as 10 nM
# Excerpt: as §5, §6, §7
# HCT-116 cells [5] = assay: Clonogenic survival assay with HCT-116 cells; format: cell-based; details: Homo sapiens
# Method: This assay was used to determine the concentration of a compound that results in irreversible loss of viability after a specified period of exposure. Essentially, cells are exposed to compound for a period of […], and are then transferred to compound-free growth medium. After continued incubation in the compound-free medium for a number of days, the number of colonies recovered is counted as an estimate of the number of surviving cells.
# Media (RPMI-1640, 10% FCS, pen/strep) was pre-warmed to 37° C. in a water bath. Cells were incubated and grown at 37° C., 5% CO2. Cells were recovered by trypsinization from sub-confluent plates and counted using a hemocytometer. 1×10^4 cells were plated in 25 mls of media in a 15 cm tissue culture dish. […] were set up for each test compound, and were incubated overnight at 37° C. The compound was diluted into media at 7 concentrations and the media on the cells was replaced with that containing the test compound. Two plates were set up for each concentration of the compound to be tested, as well as two control plates without compound. Plates were incubated as above for […], media was removed and replaced with fresh media, and the plates were incubated an additional 7 days and washed with PBS. Colonies were stained with crystal violet solution (0.4% crystal violet, 20% ethanol) for 5 minutes, washed twice with distilled water, and counted.
# 1A9-PTX10 = assay: SRB cytotoxicity, tubulin mutated paclitaxel-resistant cells; format: cell-based, human
# Method: (§8) In these experiments, the P-glycoprotein expressing NCI-Adr resistant subline (Vickers et al., 1989. Mol Endocrinology 3 (1):157-164) was used. […] Briefly, cells were plated in 96 well dishes 24 hours prior to compound addition. Where noted, they were exposed to verapamil for 4 hours prior to compound addition and then throughout the treatment period (72 hours). The assay was terminated with the addition of cold TCA to a final concentration of 10% and the plates were incubated for one hour at 4° C. The plates were then washed 5 times with water and 100 μl of a Sulforhodamine B solution (4%) was added to each well. The plate was then incubated for 10 minutes at room temperature before removal of unbound dye by washing with 1% acetic acid.
# (§9) The tubulin mutated, paclitaxel-resistant human ovarian carcinoma cell line 1A9-PTX10 and its parental paclitaxel-sensitive cell line 1A9 were derived from the A2780 human ovarian carcinoma cell line (J Biol Chem (1997) 272, 17118-17124).
# 1A9 = assay: SRB cytotoxicity, 1A9 parental cells; format: cell-based; details: Homo sapiens, 72 h
# Method: as §8, §9
# NCI-Adr resistant = assay: SRB cytotoxicity, P-glycoprotein expressing cells with and without verapamil; format: cell-based; details: for IC50: Homo sapiens, NCI/ADR-RES, 72 h, SRB
# Method: as §8
# [6] = HCT-116, non-protein adjusted, Table 4, read-out: HCT-116 viability IC50
# [7] = 24 h exposure, read-out: HCT-116 IC50 Clonogenic 24 h
# [8] = 48 h exposure, read-out: HCT-116 IC50 Clonogenic 48 h
# [9] = HCT-116, 72 h, Calcein AM, 72 h, read-out: HCT-116 IC50 Viability
# [10] = HCT-116, plus 1 mg/ml alpha acidic glycoprotein and 45 mg/ml human serum albumin, read-out: HCT-116 IC50 Protein adjusted
SMILES,IC50 (HCT-116 cells [1]; [6]) [nM],IC50 [2] [nM],IC50 [3] [nM],IC50 [4] [nM],IC50 (HCT-116 cells [5]; [7]) [nM],IC50 (HCT-116 cells [1]; [9]) [nM],IC50 (HCT-116 cells [1]; [10]) [nM],also measured
O=C(Nc1cccc2c1C(=O)c1c-2n[nH]c1-c1ccc(OCCN2CCCC2)cc1)NN1CCOCC1 [Compound I],,< 1000,< 100,< 100,< 100,< 100,< 1000,IC50 (HCT-116 cells [5]; [8]): < 100 nM
CN1CCN(NC(=O)Nc2cccc3c2C(=O)c2c-3n[nH]c2-c2ccc(OCCN3CCC[C@H]3CO)cc2)CC1 [Compound M],,,< 100,,< 100,< 100,< 1000,
CN1CCN(NC(=O)Nc2cccc3c2C(=O)c2c-3n[nH]c2-c2ccc(OCCN3CCCC3)cc2)CC1 [F],,< 1000,< 100,< 100,< 1000,< 100,< 100,
CCCN(CCOc1ccc(-c2[nH]nc3c2C(=O)c2c(NC(=O)NN4CCOCC4)cccc2-3)cc1)CC1CC1 [G],,< 1000,< 100,< 100,< 100,< 100,< 1000,IC50 (HCT-116 cells [5]; [8]): < 100 nM
O=C(Nc1cccc2c1C(=O)c1c-2n[nH]c1-c1ccc(OCCN(CCO)CCO)cc1)NN1CCOCC1 [H],,> 10000,< 100,< 100,< 1000,< 100,< 1000,IC50 (HCT-116 cells [5]; [8]): < 100 nM
O=C(Nc1cccc2c1C(=O)c1c-2n[nH]c1-c1ccc(OP(=O)(O)O)cc1)NN1CCOCC1 [J],,,< 100,,,,,"IC50 (HCT-116 cells [1]; HCT-116, Calcein AM, 72 h, read-out: HCT-116 IC50 Viability): < 1000 nM"
CC(C)N1CCN(Cc2cc(-c3[nH]nc4c3C(=O)c3c(NC(=O)NN5CCOCC5)cccc3-4)ccc2O)CC1 [K],,< 10000,> 100,< 100,< 1000,< 100,< 1000,
Cc1cc(OCCN2CCCC2)ccc1-c1[nH]nc2c1C(=O)c1c(NC(=O)NN3CCN(C)CC3)cccc1-2 [L],,> 10000,> 100,> 10000,,< 100,< 1000,IC50 (HCT-116 cells [5]; [8]): < 100 nM
CN1CCN(NC(=O)Nc2cccc3c2C(=O)c2c-3n[nH]c2-c2ccc(OCCN(CCO)CCO)cc2)CC1 [N],,,> 100,,,< 1000,< 1000,
CN1CCN(NC(=O)Nc2cccc3c2C(=O)c2c-3n[nH]c2-c2ccc(OCCN3CC[C@H](O)C3)cc2)CC1 [O],,,< 100,,< 10,< 100,< 1000,
Cc1cc(-c2[nH]nc3c2C(=O)c2c(NC(=O)NN4CCN(C)CC4)cccc2-3)ccc1OCCN1CCCC1 [P],,,< 100,,< 100,< 10,,
"CC(=O)O[C@H]1C(=O)[C@@]2(C)[C@H]([C@H](OC(=O)c3ccccc3)[C@]3(O)C[C@H](OC(=O)[C@H](O)[C@@H](NC(=O)c4ccccc4)c4ccccc4)C(C)=C1C3(C)C)[C@]1(OC(C)=O)CO[C@@H]1C[C@@H]2O [Paclitaxel, reference compound]",,,,,,,,"IC50 (1A9-PTX10; Homo sapiens, 1A9/ptx-10, 72 h, SRB): 235 nM; RR (relative resistance) 1A9-PTX10 vs 1A9 (1A9-PTX10; ratio of mean IC50 resistant/sensitive): 59; IC50 (1A9): 4 nM; IC50 (NCI-Adr resistant; verapamil 12.5 μg/ml): 39 nM; IC50 (NCI-Adr resistant; without verapamil): 3960 nM; RR (relative resistance) NCI-Adr resistant −/+ verapamil (NCI-Adr resistant; ratio of mean IC50): 101.5"
CN1CCN(NC(=O)Nc2cccc3c2C(=O)c2c-3n[nH]c2-c2ccc(OCCN3CCOCC3)cc2)CC1 [Q],,< 10000,< 100,< 100,< 100,< 100,< 1000,"IC50 (HCT-116 cells [5]; 72 h exposure, read-out: HCT-116 IC50 Clonogenic 72 h): < 100 nM"

# Now from value to compound, other results behind:
IC50 (HCT-116 cells [1]; [6]) [nM],SMILES,IC50 [2] [nM],IC50 [3] [nM],IC50 [4] [nM],IC50 (HCT-116 cells [5]; [7]) [nM],IC50 (HCT-116 cells [1]; [9]) [nM],IC50 (HCT-116 cells [1]; [10]) [nM],also measured
< 100,O=C(Nc1cccc2c1C(=O)c1c(-c3ccc(CNCCO)cc3)n[nH]c1-2)NN1CCOCC1 [Compound B10],,,,,,,
< 1000,O=C(Nc1cccc2c1C(=O)c1c(-c3ccc(CNCC(O)CO)cc3)n[nH]c1-2)NN1CCOCC1 (centres unmarked) [Compound B11],,,,,,,
< 100,O=C(Nc1cccc2c1C(=O)c1c(-c3ccc(CNCc4cccnc4)cc3)n[nH]c1-2)NN1CCOCC1 [Compound B12],,,,,,,
< 10,O=C(Nc1cccc2c1C(=O)c1c(-c3ccc(CNCc4ccccn4)cc3)n[nH]c1-2)NN1CCOCC1 [Compound B13],,,,,,,
< 10,O=C(Nc1cccc2c1C(=O)c1c-2n[nH]c1-c1ccc(CN2CCN(c3ccncc3)CC2)cc1)NN1CCOCC1 [Compound B14],,,,,,,
< 10,O=C(Nc1cccc2c1C(=O)c1c-2n[nH]c1-c1ccc(CN2CCN(c3ncccn3)CC2)cc1)NN1CCOCC1 [Compound B15],,,,,,,
< 10,CC(C)N1CCN(Cc2ccc(-c3[nH]nc4c3C(=O)c3c(NC(=O)NN5CCOCC5)cccc3-4)cc2)CC1 [Compound B17],,,,,,,
< 100,COCCN1CCN(C(=O)COc2ccc(-c3[nH]nc4c3C(=O)c3c(NC(=O)NN5CCOCC5)cccc3-4)cc2)CC1 [Compound C1],,,,,,,
< 250,O=C(Nc1cccc2c1C(=O)c1c-2n[nH]c1-c1ccc(OCC(=O)N2CCNCC2)cc1)NN1CCOCC1 [Compound C5],,,,,,,
